Columns and labels:
Type in all cases: cell-based
WNV = assay: Antiviral activity against WNV in HEK293 cells; details: West Nile virus; for EC90: HEK293, read-out: WNV (HEK293 cells) EC90; for log reduction at 10 µM: HEK293, read-out: WNV (HEK293 cells) VTR (virus titer reduction)
[1] = Cytotoxicity (CC50) in HEK293 cells; details: human, WNV
Method: (§1) As used herein, “CC50” is intended to refer to the concentration of a substance (e.g., a compound or a drug) that is required for 50% reduction of cell viability. In one aspect, an CC50 can refer to the concentration of a substance that is required for 50% reduction (i.e., cytotoxicity) in vivo, as further defined elsewhere herein.
The antiviral activity against Alpharviruses evaluated in HEK293 cells (4 hours pre-incubation with compound before infected with virus) is shown in Table 2 below. VTR=Virus titer reduction in log at 10 μM concentration. NT: not tested, ND: not determined

DENV = assay: Antiviral activity against DENV in HEK293 cells; details: Dengue virus; for EC90: HEK293, read-out: DENV (HEK293 cells) EC90; for log reduction at 10 µM: HEK293, read-out: DENV (HEK293 cells) VTR (virus titer reduction)
ZIKA = assay: Antiviral activity against ZIKA in HEK 293 cells; details: Zika virus; for EC90: HEK293, read-out: ZIKA (HEK 293 cells) EC90; for log reduction at 10 µM: HEK293, read-out: ZIKA (HEK 293 cells) VTR (virus titer reduction)
CHIKV = assay: Antiviral activity against CHIKV in NHDF cells; details: Chikungunya virus; for EC90: read-out: CHIKV (NHDF cells) EC90; for log reduction at 10 µM: read-out: CHIKV (NHDF cells) VTR (virus titer reduction)
[2] = Cytotoxicity (CC50) in NHDF cells; details: human, CHIKV
Method: as §1
VTR=Virus titer reduction in log at 10 μM concentration. NT: not tested, ND: not determined.

VEEV = assay: microbe, parasite or virus in culture; details: Venezuelan equine encephalitis virus, NHDF; for EC90: read-out: VEEV (NHDF cells) EC90; for log reduction at 10 µM: read-out: VEEV (NHDF cells) VTR (virus titer reduction)
H1N1 strain = assay: Antiviral activity against Influenza H1N1 strain in MDCK cells; details: Influenza A virus; for log reduction at 20 µM: at 20 μM concentration, 4-6 hours pre-incubation, read-out: H1N1 strain (MDCK cells) VTR (virus titer reduction); for EC90: 4-6 hours pre-incubation with compound
Method: (§2) The antiviral activity against Influenza viruses (H1N1 and H3N2 strains) evaluated in MDCK cells (4-6 hours pre-incubation with compound) shown in Table 5 below. VTR=Virus titer reduction in log at 20 μM concentration. NT: not tested, ND: not determined.

[3] = Cytotoxicity (CC50) in MDCK cells; details: dog, H1N1
Method: as §1, §2

H3N2 strain = assay: Antiviral activity against Influenza H3N2 strain in MDCK cells; details: Influenza A virus; for log reduction at 20 µM: at 20 μM concentration, 4-6 hours pre-incubation, read-out: H3N2 strain (MDCK cells) VTR (virus titer reduction); for EC90: 4-6 hours pre-incubation with compound
Method: as §2

SMILES | EC90 (WNV) | log reduction at 10 µM (WNV) | CC50 [1] | EC90 (DENV) | log reduction at 10 µM (DENV) | EC90 (ZIKA) | log reduction at 10 µM (ZIKA) | EC90 (CHIKV) | log reduction at 10 µM (CHIKV) | CC50 [2] | EC90 (VEEV) | log reduction at 10 µM (VEEV) | log reduction at 20 µM (H1N1 strain) | CC50 [3] | log reduction at 20 µM (H3N2 strain) | EC90 (H1N1 strain) | EC90 (H3N2 strain)
C[C@H](NP(=O)(OC[C@H]1O[C@@H](n2ncc(=O)[nH]c2=O)[C@H](O)[C@@H]1O)Oc1ccccc1)C(=O)OCc1ccc([N+](=O)[O-])o1 (mixture of isomers) [Compound 1, (5-nitrofuran-2-yl)methyl ((((2R,3S,4R,5R)-5-(3,5-dioxo-4,5-dihydro-1,2,4-triazin-2(3H)-yl)-3,4-dihydroxytetra-hydrofuran-2-yl)methoxy)(phenoxy)phosphoryl)-L-alaninate] | 0.6 µM | 3.8 | 40 µM | 1.9 µM | 2.4 | 3.2 µM | 2.2 | 0.95 µM | 4.3 | > 40 µM | > 10 µM | 0.85 | 1.6 | > 100 µM | 0.6 | – | –
C[C@H](NP(=O)(OC[C@H]1O[C@@H](n2ncc(=O)[nH]c2=O)[C@H](O)[C@@H]1O)Oc1ccccc1)C(=O)OCc1ccccc1 (mixture of isomers) [Compound 2, Benzyl ((((2R,3S,4R,5R)-5-(3,5-dioxo-4,5-dihydro-1,2,4-triazin-2(3H)-yl)-3,4-dihydroxytetrahydrofuran-2-yl)methoxy)-(phenoxy)phosphoryl)-L-alaninate] | 1.3 µM | 3 | > 40 µM | 6.9 µM | 1.3 | 16 µM | – | 0.4 µM | 0 | > 40 µM | > 10 µM | 0 | 2.3 | > 100 µM | 0.9 | – | –
CC(C)OC(=O)[C@H](C)NP(=O)(OC[C@H]1O[C@@H](n2ncc(=O)[nH]c2=O)[C@H](O)[C@@H]1O)Oc1ccccc1 (mixture of isomers) [Compound 5, isopropyl ((((2R,3S,4R,5R)-5-(3,5-dioxo-4,5-dihydro-1,2,4-triazin-2(3H)-yl)-3,4-dihydroxytetrahydrofuran-2-yl)methoxy)(phenoxy)phosphoryl)-L-alaninate] | > 30 µM | – | – | > 30 µM | – | > 30 µM | – | > 10 µM | 0.15 | > 40 µM | > 10 µM | 0 | 0.2 | > 100 µM | -0.1 | – | –
CCOC(=O)[C@H](C)NP(=O)(OC[C@H]1O[C@@H](n2ncc(=O)[nH]c2=O)[C@H](O)[C@@H]1O)Oc1ccccc1 (mixture of isomers) [Compound 6, ethyl ((((2R,3S,4R,5R)-5-(3,5-dioxo-4,5-dihydro-1,2,4-triazin-2(3H)-yl)-3,4-dihydroxytetrahydrofuran-2-yl)methoxy)-(phenoxy)phosphoryl)-L-alaninate] | 10 µM | – | > 40 µM | > 15 µM | – | 12 µM | – | > 10 µM | 0 | > 40 µM | > 10 µM | 0 | 1.6 | > 100 µM | 0.2 | – | –
COC(=O)[C@H](C)NP(=O)(OC[C@H]1O[C@@H](n2ncc(=O)[nH]c2=O)[C@H](O)[C@@H]1O)Oc1ccccc1 (mixture of isomers) [Compound 7, methyl ((((2R,3S,4R,5R)-5-(3,5-dioxo-4,5-dihydro-1,2,4-triazin-2(3H)-yl)-3,4-dihydroxytetrahydrofuran-2-yl)methoxy)-(phenoxy)phosphoryl)-L-alaninate] | 4.3 µM | 2.6 | 40 µM | 5 µM | 3.2 | 7.6 µM | 1.3 | > 10 µM | 0 | > 40 µM | > 10 µM | 0 | 3.4 | > 100 µM | 1.6 | – | –
CC(C)COC(=O)[C@H](C)NP(=O)(OC[C@H]1O[C@@H](n2ncc(=O)[nH]c2=O)C(O)[C@H]1O)Oc1ccccc1 (stereo in doubt) [Compound 4, 2-isobutyl ((((2R,3S,4R,5R)-5-(3,5-dioxo-4,5-dihydro-1,2,4-triazin-2(3H)-yl)-3,4-dihydroxytetrahydrofuran-2-yl)methoxy)(phenoxy)phosphoryl)-L-alaninate] | 1.2 µM | 3.1 | 40 µM | 2 µM | 2.2 | 4.8 µM | 2 | > 10 µM | 0 | > 40 µM | 8.9 µM | 1.18 | 3.4 | > 100 µM | 1.3 | – | –
CC(C)COC(=O)[C@H](C)N[P@](=O)(OC[C@H]1O[C@@H](n2ncc(=O)[nH]c2=O)[C@H](O)[C@@H]1O)Oc1cccc2ccccc12 [Compound 8, isobutyl ((((2R,3S,4R,5R)-5-(3,5-dioxo-4,5-dihydro-1,2,4-triazin-2(3H)-yl)-3,4-dihydroxytetrahydrofuran-2-yl)-methoxy)(naphthalen-1-yloxy)phosphoryl)-L-alaninate] | 2.9 µM | 2.8 | > 40 µM | 3.9 µM | 2.3 | 6 µM | 1.6 | > 10 µM | 0 | > 40 µM | > 10 µM | 0.21 | 3.4 | > 100 µM | 1.6 | – | –
CC(C)[C@@H](N)C(=O)OC[C@H]1O[C@@H](n2ncc(=O)[nH]c2=O)C(O)[C@H]1O (stereo partly drawn) [Compound 9, ((2r,3s,4r,5r)-5-(3,5-dioxo-4,5-dihydro-1,2,4-triazin-2(3H)-yl)-3,4-dihydroxytetrahydrofuran-2-yl) methyl-D-valinate] | 0.22 µM | 3.5 | 29 µM | 1.3 µM | 3.2 | 1.4 µM | 2 | 1 µM | 1.34 | > 40 µM | 3.04 µM | 3.1 | 3.4 | 19.6 µM | 3.4 | 0.77 µM | 2.41 µM
CC[C@H](C)[C@H](N)C(=O)OC[C@H]1O[C@@H](n2ncc(=O)[nH]c2=O)[C@H](O)[C@@H]1O [Compound 10, ((2r,3s,4r,5r)-5-(3,5-dioxo-4,5-dihydro-1,2,4-triazin-2(3H)-yl)-3,4-dihydroxytetrahydrofuran-2-yl)methyl L-isoleucinate] | 0.2 µM | 3.9 | 29 µM | 0.3 µM | 3.4 | 0.5 µM | 3.1 | > 10 µM | 0.39 | > 40 µM | 0.62 µM | 3.51 | 3.4 | 19.3 µM | 3.4 | 3.68 µM | 3.33 µM

Reference: patent US11858956B2, “6-aza-nucleoside prodrugs as antiviral agents for treating virus infections” (Southern Research Institute, priority 2020, dated 2024)
